# The source made the active and inactive calls. The calls are words filed in the database; no cut-off is given here.
# Columns and labels:
# Rattus norvegicus [1] = assay: (§1) Protection against diabetes-induced organ dysfunction in streptozotocin-induced diabetic Wistar rat model assessed as reduction in pancreas damage by measuring well preserved islet structure at 10 mg/kg, po and measured on day 14 by Hematoxylin-Eosin staining based analysis; format: functional, organism-based; conditions: time 14.0 day
# Rattus norvegicus [2] = assay: Antidiabetic activity against streptozotocin-induced diabetic Wistar rat model assessed as restoration of metabolic homeostasis by measuring AST level in serum at 10 mg/kg, po measured on day 1 to 14 (reference value: 133.49 +/-2.52 IU/L); format: functional; conditions: time 1-14 day
# Rattus norvegicus [3] = assay: Antidiabetic activity against streptozotocin-induced diabetic Wistar rat model assessed as restoration of metabolic homeostasis by measuring serum urea level at 10 mg/kg, po measured on day 1 to 14 (reference value: 124.68 +/-2.16 mg/dl); format: functional; conditions: time 1-14 day
# Rattus norvegicus [4] = assay: Antidiabetic activity against streptozotocin-induced diabetic Wistar rat model assessed as blood glucose level at 10 mg/kg, po and measured on day 7 (reference value: 378.8 +/-6.48 mg/dl); format: functional; conditions: time 7 day
# Rattus norvegicus [5] = assay: Antidiabetic activity against streptozotocin-induced diabetic Wistar rat model assessed as restoration of metabolic homeostasis by measuring ALT level in serum at 10 mg/kg, po measured on day 1 to 14 (reference value: 35.2 +/-1.58 IU/L); format: functional; conditions: time 1-14 day
# Homo sapiens [6] = species: Homo sapiens; assay: Potency index, ratio of acarbose IC50 to test compound IC50 for inhibition of alpha-amylase (unknown origin) using starch as substrate preincubated for 10 mins followed by substrate addition and measured after 10 mins; conditions: time 20.0 min
# Homo sapiens [7] = species: Homo sapiens; assay: Inhibition of alpha-glucosidase (unknown origin) using p-NPG as substrate preincubated for 5 mins followed by substrate addition and measured after 30 mins relative to control; design: concentration or dose not given beside the values; conditions: time 35.0 min
# Rattus norvegicus [8] = assay: Antidiabetic activity against streptozotocin-induced diabetic Wistar rat model assessed as restoration of metabolic homeostasis by measuring ALP level in serum at 10 mg/kg, po measured on day 1 to 14 (reference value: 195.13 +/-1.08 IU/L); format: functional; conditions: time 1-14 day
# [9] = Inhibition of alpha-amylase (unknown origin) using starch as substrate preincubated for 10 mins followed by substrate addition and measured after 10 mins; design: species or system Homo sapiens
# Homo sapiens [10] = species: Homo sapiens; assay: Inhibition of alpha-amylase (unknown origin) using starch as substrate preincubated for 10 mins followed by substrate addition and measured after 10 mins relative to control; design: concentration or dose not given beside the values; conditions: time 20.0 min
# Homo sapiens [11] = species: Homo sapiens; assay: Mixed type of inhibition of alpha-amylase (unknown origin) assessed as change in Km and Vmax of substrate using starch as substrate and measured after 10 mins by Lineweaver-burk plot analysis
# Rattus norvegicus [12] = assay: Antidiabetic activity against streptozotocin-induced diabetic Wistar rat model assessed as blood glucose level at 10 mg/kg, po and measured on day 1 (reference value: 324.7 +/-6.24 mg/dl); format: functional; conditions: time 1 day
# Rattus norvegicus [13] = assay: as §1, with “liver” for “pancreas”, “improved hepatic sinusoid congestion and healthier hepatocytes with reduced lipid droplets” for “well preserved islet structure”; format: functional, organism-based; conditions: time 14.0 day
# Rattus norvegicus [14] = assay: as §1, with “kidney” for “pancreas”, “kidney with structural improvement and reduced retraction,” for “well”, “glomeruli and less hemorrhages” for “islet structure”; format: functional, organism-based; conditions: time 14.0 day
# Rattus norvegicus [15] = assay: Antidiabetic activity against streptozotocin-induced diabetic Wistar rat model assessed as blood glucose level at 10 mg/kg, po and measured on day 14 (reference value: 388.3 +/-6.34 mg/dl); format: functional; conditions: time 14 day
# Rattus norvegicus [16] = assay: Antidiabetic activity against streptozotocin-induced diabetic Wistar rat model assessed as restoration of metabolic homeostasis by measuring decrease in […] level in serum at 10 mg/kg, po measured on day 1 to 14; format: functional, organism-based; conditions: time 1-14 day
# Rattus norvegicus [17] = assay: Antidiabetic activity against streptozotocin-induced diabetic Wistar rat model assessed as restoration of metabolic homeostasis by measuring serum creatinine level at 10 mg/kg, po measured on day 1 to 14 (reference value: 116.81 +/-9.26 uM); format: functional; conditions: time 1-14 day
# [18] = Inhibition of alpha-amylase (unknown origin); design: species or system Homo sapiens
# [19] = Inhibition of porcine pancreatic alpha-amylase using starch as substrate preincubated for 10 mins followed by substrate addition and measured after 5 mins; design: species or system Sus scrofa
# Rattus norvegicus [20] = assay: as §1, with “kidney” for “pancreas”, “kidney with less severe retraction and swelling with measurable hemorrhages in renal tubules and glomeruli” for “well preserved islet structure”, “50” for “10”; format: functional, organism-based; conditions: time 14.0 day
# [21] = Inhibition of alpha-amylase (unknown origin) using starch as substrate measured after 30 mins; design: species or system Homo sapiens
# Rattus norvegicus [22] = assay: Antidiabetic activity against streptozotocin-induced diabetic Wistar rat model assessed as restoration of metabolic homeostasis by measuring serum urea level at 50 mg/kg, po measured on day 1 to 14 (reference value: 124.68 +/-2.16 mg/dl); format: functional; conditions: time 1-14 day
# Rattus norvegicus [23] = assay: Antidiabetic activity against streptozotocin-induced diabetic Wistar rat model assessed as restoration of metabolic homeostasis by measuring ALP level in serum at 50 mg/kg, po measured on day 1 to 14 (reference value: 195.13 +/-1.08 IU/L); format: functional; conditions: time 1-14 day
# Rattus norvegicus [24] = assay: Antidiabetic activity against streptozotocin-induced diabetic Wistar rat model assessed as restoration of metabolic homeostasis by measuring ALT level in serum at 50 mg/kg, po measured on day 1 to 14 (reference value: 35.2 +/-1.58 IU/L); format: functional; conditions: time 1-14 day
# Rattus norvegicus [25] = assay: as §1, with “visible improvement in” for “well preserved”, “structure with noticeable signs of atrophy remained” for “structure”, “50” for “10”; format: functional, organism-based; conditions: time 14.0 day
# Rattus norvegicus [26] = assay: Antidiabetic activity against streptozotocin-induced diabetic Wistar rat model assessed as restoration of metabolic homeostasis by measuring decrease in […] level in serum at 50 mg/kg, po measured on day 1 to 14; format: functional, organism-based; conditions: time 1-14 day
# Rattus norvegicus [27] = assay: Antidiabetic activity against streptozotocin-induced diabetic Wistar rat model assessed as blood glucose level at 50 mg/kg, po and measured on day 1 (reference value: 324.7 +/-6.24 mg/dl); format: functional; conditions: time 1 day
# Rattus norvegicus [28] = assay: as §1, with “liver” for “pancreas”, “fewer congestive blood vessels, reduced hepatocyte ballooning with fewer lipid droplets” for “well preserved islet structure”, “50” for “10”; format: functional, organism-based; conditions: time 14.0 day
# Rattus norvegicus [29] = assay: Antidiabetic activity against streptozotocin-induced diabetic Wistar rat model assessed as blood glucose level at 50 mg/kg, po and measured on day 14 (reference value: 388.3 +/-6.34 mg/dl); format: functional; conditions: time 14 day
# Rattus norvegicus [30] = assay: Antidiabetic activity against streptozotocin-induced diabetic Wistar rat model assessed as restoration of metabolic homeostasis by measuring serum creatinine level at 50 mg/kg, po measured on day 1 to 14 (reference value: 116.81 +/-9.26 uM); format: functional; conditions: time 1-14 day
# Rattus norvegicus [31] = assay: Antidiabetic activity against streptozotocin-induced diabetic Wistar rat model assessed as restoration of metabolic homeostasis by measuring AST level in serum at 50 mg/kg, po measured on day 1 to 14 (reference value: 133.49 +/-2.52 IU/L); format: functional; conditions: time 1-14 day
# Rattus norvegicus [32] = assay: Antidiabetic activity against streptozotocin-induced diabetic Wistar rat model assessed as blood glucose level at 50 mg/kg, po and measured on day 7 (reference value: 378.8 +/-6.48 mg/dl); format: functional; conditions: time 7 day
# [33] = Inhibition of porcine pancreatic alpha-amylase using starch as substrate preincubated for 10 mins followed by substrate addition and measured after 30 mins; design: species or system Sus scrofa
Structure (SMILES),inhibition (Homo sapiens [7]),IC50 [9],inhibition (Homo sapiens [10]),further results
Cn1ccnc1/C=C1\SC(=S)N(CC(=O)Nc2ccc(C(F)(F)F)cc2)C1=O,6.43%,0.71 µM,80.4%,Activity (Rattus norvegicus [1]): Active; Activity (Rattus norvegicus [2]): 41.13 IU/L; Activity (Rattus norvegicus [3]): 57.31 mg/dL; Activity (Rattus norvegicus [4]): 149.7 mg/dL; Activity (Rattus norvegicus [5]): 12.04 IU/L; Ratio IC50 (Homo sapiens [6]): 1340; Activity (Rattus norvegicus [8]): 138.41 IU/L; inhibition (Homo sapiens [11]): Active; Activity (Rattus norvegicus [12]): 328.3 mg/dL; Activity (Rattus norvegicus [13]): Active; Activity (Rattus norvegicus [14]): Active; Activity (Rattus norvegicus [15]): 106.2 mg/dL; Activity (Rattus norvegicus [16]): Active; Activity (Rattus norvegicus [17]): 82.14 µM
O=C(CN1C(=O)/C(=C/c2nccs2)SC1=S)Nc1ccc(C(F)(F)F)cc1,7.83%,–,34.8%,–
Oc1ccc(-c2nnc(CSc3nc4ccccc4[nH]3)o2)c(O)c1,–,–,–,IC50 [18]: 6.2 µM
O=C(CN1C(=O)/C(=C/c2nc3ccccc3s2)SC1=S)Nc1ccc(C(F)(F)F)cc1,3.78%,4.07 µM,61.7%,Ratio IC50 (Homo sapiens [6]): 234
Cn1ccnc1/C=C1\SC(=S)N(CC(=O)NC23CC4CC(CC(C4)C2)C3)C1=O,8.22%,–,15.2%,–
Cn1ccnc1/C=C1\SC(=S)N(CC(=O)Nc2c(F)cc(F)cc2Br)C1=O,6.24%,129 µM,59.2%,–
CC(C)CNC(=O)CN1C(=O)/C(=C/c2csc3ccccc23)SC1=S,8.62%,–,29.6%,–
COC(=O)[C@@H]1N[C@@]2(C(=O)Nc3ccc(Br)cc32)[C@@]2(SC(=S)NC2=O)[C@H]1c1ccccc1,–,–,–,IC50 [19]: 1.49 µM
O=C(CN1C(=O)/C(=C/c2csc3ccccc23)SC1=S)Nc1ccc(Br)cc1F,4.31%,–,14.7%,–
O=C(CN1C(=O)/C(=C/c2nc3ccccc3s2)SC1=S)Nc1c(F)cc(Br)cc1Cl,8.37%,167 µM,69.8%,–
O=C(CN1C(=O)/C(=C/c2nccs2)SC1=S)Nc1ccc(Br)cc1F,9.25%,–,22.6%,–
Cn1ccnc1/C=C1\SC(=S)N(CC(=O)Nc2cccnn2)C1=O,9.47%,–,27.4%,–
Cn1ccnc1/C=C1\SC(=S)N(CC(=O)Nc2c(F)cc(Br)cc2Cl)C1=O,8.25%,–,38.2%,–
C[C@H]1O[C@H](O[C@H]2[C@H](O)[C@@H](O)[C@@H](O[C@H]3[C@H](O)[C@@H](O)C(O)O[C@@H]3CO)O[C@@H]2CO)[C@H](O)[C@@H](O)[C@@H]1N[C@H]1C=C(CO)[C@@H](O)[C@H](O)[C@H]1O (some centres not stated) [ACARBOSE],76.4%,951 µM,81.2%,Activity (Rattus norvegicus [20]): Active; IC50 [18]: 1.06 µM; IC50 [21]: 0.0125 µM; Activity (Rattus norvegicus [22]): 55.28 mg/dL; Activity (Rattus norvegicus [23]): 145.34 IU/L; Activity (Rattus norvegicus [24]): 12.14 IU/L; IC50 [19]: 1.56 µM; Activity (Rattus norvegicus [25]): Active; Activity (Rattus norvegicus [26]): Active; Activity (Rattus norvegicus [27]): 315.8 mg/dL; Activity (Rattus norvegicus [28]): Active; Activity (Rattus norvegicus [29]): 119.7 mg/dL; Activity (Rattus norvegicus [30]): 80.21 µM; Activity (Rattus norvegicus [31]): 48.87 IU/L; inhibition (Homo sapiens [11]): Active; Activity (Rattus norvegicus [32]): 170.6 mg/dL; IC50 [33]: 104 µM
CC(C)CNC(=O)CN1C(=O)/C(=C/c2nccn2C)SC1=S,4.88%,–,23.3%,–
O=C(CN1C(=O)/C(=C/c2csc3ccccc23)SC1=S)NC12CC3CC(CC(C3)C1)C2,6.53%,–,32.5%,–
Fc1ccc(NC(=S)Nc2nnc(-c3ccc4cn[nH]c4c3)s2)cc1,–,–,–,IC50 [18]: 9.9 µM
O=C(CN1C(=O)/C(=C/c2nc3ccccc3s2)SC1=S)Nc1ccc(Br)cc1F,7.65%,128 µM,69.2%,–
O=C1OCc2cc(-c3ccc(C(F)(F)F)cc3)ccc21,–,–,–,IC50 [18]: 85.4 µM
